{"source": "patent US6525001B1", "about": "“Substituted pyrimidine and pyridine herbicides” (Mid-American Commercialization Corporation, priority 1997, dated 2003)", "assay_type_in_all_cases": "in vivo", "key": {"[1]": {"tested_on": "smallflower flatsedge (Cyperus difformis)", "experiment": "Test B flood test", "in_short": "(§1)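 Each value is a visual injury score relative to controls, with 10 meaning complete control and 0 no effect. Evaluation took place twelve to sixteen days after the 2-leaf-stage plants were treated and kept in the greenhouse.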"}, "[2]": {"tested_on": "duck salad (Heteranthera limosa)", "experiment": "Test B flood test", "in_short": "as §1"}, "[3]": {"tested_on": "bamyardgrass (Echinochloa crus-galli)", "experiment": "Test B flood test", "in_short": "as §1"}, "rice (Oryza sativa)": {"tested_on": "rice (Oryza sativa)", "experiment": "Test B flood test", "in_short": "as §1"}, "[4]": {"tested_on": "ivyleaf morningglory (Ipomoea hederacea)", "experiment": "Test C", "set-up": "key: 0 was no effect; 100 was complete control"}, "[5]": {"tested_on": "giant foxtail (Setaria faberii)", "experiment": "Test B pre-/postemergence", "set-up": "key: 0 is no effect; 10 is complete control", "in_short": "(§2)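 Response scores run from 0, meaning no effect, to 10, meaning complete control, assigned by eye relative to controls twelve to sixteen days after spraying. Treatment was both preemergence on planted seed and postemergence on plants at the 1- to 4-leaf stage.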"}, "[6]": {"tested_on": "purple nutsedge (Cyperus rotundus)", "experiment": "Test B pre-/postemergence", "set-up": "key: 0 is no effect; 10 is complete control", "in_short": "as §2"}, "[7]": {"tested_on": "eastern black nightshade (Solanum ptycanthum)", "experiment": "Test C", "set-up": "key: 0 was no effect; 100 was complete control"}, "[8]": {"tested_on": "arrowleaf sida (Sida rhombifolia)", "experiment": "Test C"}, "soybean (Glycine max)": {"tested_on": "soybean (Glycine max)", "experiment": "Test C"}, "[9]": {"tested_on": "giant foxtail (Setaria faberii)", "experiment": "Test C", "set-up": "key: 0 was no effect; 100 was complete control"}, "[10]": {"tested_on": "purple nutsedge (Cyperus rotundus)", "experiment": "Test C", "set-up": "key: 0 was no effect; 100 was complete control"}, "[11]": {"tested_on": "surinam grass (Brachiaria decumbens)", "experiment": "Test C"}, "corn (Zea mays)": {"tested_on": "corn (Zea mays)", "experiment": "Test C", "set-up": "key: 0 was no effect; 100 was complete control"}, "[12]": {"tested_on": "redroot pigweed (Amaranthus retroflexus)", "experiment": "Test C", "set-up": "key: 0 was no effect; 100 was complete control"}, "[13]": {"settings": "Rate 62 g/ha, Postemergence (flood test)"}, "[14]": {"settings": "Rate 125 g/ha, Postemergence, flood test"}, "[15]": {"settings": "Rate 250 g/ha, Postemergence (flood test species)"}, "[16]": {"settings": "Rate 500 g/ha, Postemergence (flood test species)"}}}
{"compound": "Cc1cnc(-c2ccc(C(F)(F)F)cc2)nc1Cn1ccc(C(F)(F)F)n1", "note": "[compound 9]", "values": [{"measurement": "Plant response rating, S. Flatsedge", "setting": "[1]; [13]", "value": 8}, {"measurement": "Plant response rating, S. Flatsedge", "setting": "[1]; [14]", "value": 9}, {"measurement": "Plant response rating, S. Flatsedge", "setting": "[1]; [15]", "value": 9}, {"measurement": "Plant response rating, S. Flatsedge", "setting": "[1]; [16]", "value": 9}, {"measurement": "Plant response rating, Ducksalad", "setting": "[2]; [13]", "value": 4}, {"measurement": "Plant response rating, Ducksalad", "setting": "[2]; [14]", "value": 6}, {"measurement": "Plant response rating, Ducksalad", "setting": "[2]; [15]", "value": 7}, {"measurement": "Plant response rating, Ducksalad", "setting": "[2]; [16]", "value": 6}, {"measurement": "Plant response rating, Barnyardgrass", "setting": "[3]; [13]", "value": 5}, {"measurement": "Plant response rating, Barnyardgrass", "setting": "[3]; [14]", "value": 5}, {"measurement": "Plant response rating, Barnyardgrass", "setting": "[3]; [15]", "value": 7}, {"measurement": "Plant response rating, Barnyardgrass", "setting": "[3]; [16]", "value": 8}, {"measurement": "Plant response rating, Rice", "setting": "rice (Oryza sativa); [13]", "value": 5}, {"measurement": "Plant response rating, Rice", "setting": "rice (Oryza sativa); [14]", "value": 6}, {"measurement": "Plant response rating, Rice", "setting": "rice (Oryza sativa); [15]", "value": 7}, {"measurement": "Plant response rating, Rice", "setting": "rice (Oryza sativa); [16]", "value": 8}, {"measurement": "Plant response rating, I. morningglory", "setting": "[4]; POSTEMERGENCE, Rate 35 g/ha", "value": 50}, {"measurement": "Plant response rating, I. morningglory", "setting": "[4]; POSTEMERGENCE, Rate 70 g/ha", "value": 60}, {"measurement": "Plant response rating, I. morningglory", "setting": "[4]; POSTEMERGENCE, Rate 140 g/ha", "value": 100}, {"measurement": "Plant response rating, I. morningglory", "setting": "[4]; PREEMERGENCE, Rate 35 g/ha", "value": 20}, {"measurement": "Plant response rating, I. morningglory", "setting": "[4]; PREEMERGENCE, Rate 70 g/ha", "value": 50}, {"measurement": "Plant response rating, I. morningglory", "setting": "[4]; PREEMERGENCE, Rate 140 g/ha", "value": 50}, {"measurement": "Plant response rating, Giant foxtail", "setting": "[5]; Rate 62 g/ha, Postemergence", "value": 4}, {"measurement": "Giant foxtail plant response rating", "setting": "[5]; Rate 62 g/ha, Preemergence", "value": 10}, {"measurement": "Plant response rating, Giant foxtail", "setting": "[5]; Rate 125 g/ha, Postemergence", "value": 5}, {"measurement": "Giant foxtail plant response rating", "setting": "[5]; Rate 125 g/ha, Preemergence", "value": 10}, {"measurement": "Plant response rating, Giant foxtail", "setting": "[5]; Rate 250 g/ha, Postemergence", "value": 9}, {"measurement": "Plant response rating, Giant foxtail", "setting": "[5]; Rate 250 g/ha, Preemergence", "value": 10}, {"measurement": "Plant response rating, Giant foxtail", "setting": "[5]; Rate 500 g/ha, Postemergence", "value": 9}, {"measurement": "Plant response rating, Giant foxtail", "setting": "[5]; Rate 500 g/ha, Preemergence", "value": 10}, {"measurement": "Plant response rating, Nutsedge", "setting": "[6]; Rate 62 g/ha, Postemergence", "value": 0}, {"measurement": "Nutsedge plant response rating", "setting": "[6]; Rate 62 g/ha, Preemergence", "value": 0}, {"measurement": "Plant response rating, Nutsedge", "setting": "[6]; Rate 125 g/ha, Postemergence", "value": 1}, {"measurement": "Nutsedge plant response rating", "setting": "[6]; Rate 125 g/ha, Preemergence", "value": 0}, {"measurement": "Plant response rating, Nutsedge", "setting": "[6]; Rate 250 g/ha, Postemergence", "value": 3}, {"measurement": "Plant response rating, Nutsedge", "setting": "[6]; Rate 250 g/ha, Preemergence", "value": 0}, {"measurement": "Plant response rating, Nutsedge", "setting": "[6]; Rate 500 g/ha, Postemergence", "value": 3}, {"measurement": "Plant response rating, Nutsedge", "setting": "[6]; Rate 500 g/ha, Preemergence", "value": 0}, {"measurement": "Plant response rating, E. blacknightsh", "setting": "[7]; POSTEMERGENCE, Rate 35 g/ha", "value": 100}, {"measurement": "Plant response rating, E. blacknightsh", "setting": "[7]; POSTEMERGENCE, Rate 140 g/ha", "value": 100}, {"measurement": "Plant response rating, E. blacknightsh", "setting": "[7]; PREEMERGENCE, Rate 35 g/ha", "value": 95}, {"measurement": "Plant response rating, E. blacknightsh", "setting": "[7]; PREEMERGENCE, Rate 70 g/ha", "value": 100}, {"measurement": "Plant response rating, E. blacknightsh", "setting": "[7]; PREEMERGENCE, Rate 140 g/ha", "value": 95}, {"measurement": "Plant response rating, Arrowleaf sida", "setting": "[8]; POSTEMERGENCE, Rate 35 g/ha", "value": 80}, {"measurement": "Plant response rating, Arrowleaf sida", "setting": "[8]; POSTEMERGENCE, Rate 70 g/ha", "value": 90}, {"measurement": "Plant response rating, Arrowleaf sida", "setting": "[8]; POSTEMERGENCE, Rate 140 g/ha", "value": 90}, {"measurement": "Plant response rating, Arrowleaf sida", "setting": "[8]; PREEMERGENCE, Rate 35 g/ha", "value": 90}, {"measurement": "Plant response rating, Arrowleaf sida", "setting": "[8]; PREEMERGENCE, Rate 70 g/ha", "value": 95}, {"measurement": "Plant response rating, Arrowleaf sida", "setting": "[8]; PREEMERGENCE, Rate 140 g/ha", "value": 95}, {"measurement": "Plant response rating, Soybean", "setting": "soybean (Glycine max); POSTEMERGENCE, Rate 35 g/ha", "value": 40}, {"measurement": "Plant response rating, Soybean", "setting": "soybean (Glycine max); POSTEMERGENCE, Rate 70 g/ha", "value": 50}, {"measurement": "Plant response rating, Soybean", "setting": "soybean (Glycine max); POSTEMERGENCE, Rate 140 g/ha", "value": 50}, {"measurement": "Plant response rating, Soybean", "setting": "soybean (Glycine max); PREEMERGENCE, Rate 35 g/ha", "value": 20}, {"measurement": "Plant response rating, Soybean", "setting": "soybean (Glycine max); PREEMERGENCE, Rate 70 g/ha", "value": 20}, {"measurement": "Plant response rating, Soybean", "setting": "soybean (Glycine max); PREEMERGENCE, Rate 140 g/ha", "value": 25}, {"measurement": "Plant response rating, Giant foxtail", "setting": "[9]; POSTEMERGENCE, Rate 35 g/ha", "value": 15}, {"measurement": "Plant response rating, Giant foxtail", "setting": "[9]; POSTEMERGENCE, Rate 70 g/ha", "value": 15}, {"measurement": "Plant response rating, Giant foxtail", "setting": "[9]; POSTEMERGENCE, Rate 140 g/ha", "value": 30}, {"measurement": "Plant response rating, Giant foxtail", "setting": "[9]; PREEMERGENCE, Rate 35 g/ha", "value": 90}, {"measurement": "Plant response rating, Giant foxtail", "setting": "[9]; PREEMERGENCE, Rate 70 g/ha", "value": 100}, {"measurement": "Plant response rating, Giant foxtail", "setting": "[9]; PREEMERGENCE, Rate 140 g/ha", "value": 100}, {"measurement": "Plant response rating, Purple nutsedge", "setting": "[10]; POSTEMERGENCE, Rate 35 g/ha", "value": 5}, {"measurement": "Plant response rating, Purple nutsedge", "setting": "[10]; POSTEMERGENCE, Rate 70 g/ha", "value": 5}, {"measurement": "Plant response rating, Purple nutsedge", "setting": "[10]; POSTEMERGENCE, Rate 140 g/ha", "value": 5}, {"measurement": "Plant response rating, Purple nutsedge", "setting": "[10]; PREEMERGENCE, Rate 35 g/ha", "value": 0}, {"measurement": "Plant response rating, Purple nutsedge", "setting": "[10]; PREEMERGENCE, Rate 70 g/ha", "value": 0}, {"measurement": "Plant response rating, Purple nutsedge", "setting": "[10]; PREEMERGENCE, Rate 140 g/ha", "value": 0}, {"measurement": "Plant response rating, Surinam grass", "setting": "[11]; POSTEMERGENCE, Rate 35 g/ha", "value": 5}, {"measurement": "Plant response rating, Surinam grass", "setting": "[11]; POSTEMERGENCE, Rate 70 g/ha", "value": 5}, {"measurement": "Plant response rating, Surinam grass", "setting": "[11]; POSTEMERGENCE, Rate 140 g/ha", "value": 20}, {"measurement": "Plant response rating, Surinam grass", "setting": "[11]; PREEMERGENCE, Rate 35 g/ha", "value": 35}, {"measurement": "Plant response rating, Surinam grass", "setting": "[11]; PREEMERGENCE, Rate 70 g/ha", "value": 80}, {"measurement": "Plant response rating, Surinam grass", "setting": "[11]; PREEMERGENCE, Rate 140 g/ha", "value": 90}, {"measurement": "Plant response rating, Corn", "setting": "corn (Zea mays); POSTEMERGENCE, Rate 35 g/ha", "value": 10}, {"measurement": "Plant response rating, Corn", "setting": "corn (Zea mays); POSTEMERGENCE, Rate 70 g/ha", "value": 15}, {"measurement": "Plant response rating, Corn", "setting": "corn (Zea mays); POSTEMERGENCE, Rate 140 g/ha", "value": 15}, {"measurement": "Plant response rating, Corn", "setting": "corn (Zea mays); PREEMERGENCE, Rate 35 g/ha", "value": 0}, {"measurement": "Plant response rating, Corn", "setting": "corn (Zea mays); PREEMERGENCE, Rate 70 g/ha", "value": 5}, {"measurement": "Plant response rating, Corn", "setting": "corn (Zea mays); PREEMERGENCE, Rate 140 g/ha", "value": 10}, {"measurement": "Plant response rating, Redroot pigweed", "setting": "[12]; POSTEMERGENCE, Rate 35 g/ha", "value": 60}, {"measurement": "Plant response rating, Redroot pigweed", "setting": "[12]; POSTEMERGENCE, Rate 70 g/ha", "value": 70}, {"measurement": "Plant response rating, Redroot pigweed", "setting": "[12]; PREEMERGENCE, Rate 35 g/ha", "value": 100}, {"measurement": "Plant response rating, Redroot pigweed", "setting": "[12]; PREEMERGENCE, Rate 70 g/ha", "value": 100}, {"measurement": "Plant response rating, Redroot pigweed", "setting": "[12]; PREEMERGENCE, Rate 140 g/ha", "value": 100}]}
